Results published in patent publication US20210154280A1, “NEO-EPITOPE VACCINES AND METHODS OF TREATING CANCER” (Epivax Oncology, Inc., priority 2019, published 2021).

Assays:
[1] = system: CT26 murine colon tumor cells; assay: Anti-tumor activity with or without poly-ICLC, CT26 murine tumor model (Example 13); type: in vivo, BALB/c mice; details: day 25 post-tumor implantation; relative to PBS or poly-ICLC alone; sc twice per week for three weeks
Method: The goal of this experiment was to determine the requirement for the inclusion of the adjuvant poly-ICLC in a peptide vaccine containing ANCER™ selected neoantigens. For this experiment, female BALB/c mice were implanted subcutaneously with 3×10^5 CT26 murine colon tumor cells. Tumor growth was monitored by caliper measurement and mice were sacrificed 45 days after tumor implantation or when tumor volumes reached 2000 mm^3, whichever came first.
Four vaccine groups were tested (n=10 mice/group): • Group 1=PBS only • Group 2=PBS with 50 μg poly-ICLC • Group 3=20 ANCER™ selected (uncapped) peptides with 50 μg poly-ICLC • Group 4=20 ANCER™ selected (uncapped) peptides only
Peptide vaccines were comprised of 20 different ANCER™ selected peptides at a concentration of 5 μg/peptide for a total dose of 100 μg peptide per immunization. Mice were immunized subcutaneously in the opposite flank from tumor implantation twice per week for three weeks, starting at day 4 post-tumor implantation.

CT26 tumor cells = assay: CT26 tumor growth and survival after vaccination (Example 1); details: N=10 per group
Method: Mice were separated into three groups: 1) PBS control; 2) poly-ICLC (vehicle); 3) ANCER™-selected CT26 Neoantigen Peptides+poly-ICLC. • Group 1: PBS, sc injections at days 5, 8, 12, 15, 19, 22, and 26. • Group 2: poly-ICLC, 50 μg, sc injections at days 5, 8, 12, 15, 19, 22, and 26. • Group 3: 5 μg/ANCER™-selected CT26 Neoantigen Peptide (100 μg total ANCER™-selected CT26 Neoantigen Peptides)+50 μg poly-ICLC, sc injections at days 5, 8, 12, 15, 19, 22, and 26.
All mice (N=10 mice per group) were injected 3*10^5 CT26 tumor cells in 0% Matrigel at day 0. Mice were sacrificed once the tumor volume reached 2,000 mm^3 or at day 45, whichever came first.

## poly-ICLC
[1]
  control of tumor growth: no difference in tumor growth kinetics
CT26 tumor cells
  mice that survived the 45 days of the experiment (in words): None
CT26 tumor cells; by day 28
  mice reaching a tumor volume of at least 2,000 mm^3 (endpoint): 60%
